Test results as given in patent US7074765B2, “Synthetic peptide analogs of Arg-Pro-Pro-Gly-Phe as selective inhibitors of thrombin and thrombin activation of protease activated receptors 1 and 4” (The Regents of the University of Michigan, priority 2003, dated 2006).

What was measured:
PC3 cells = assay: α-thrombin-induced intracellular calcium mobilization in PC3 cells; format: cell-based; conditions: 2 nM α-thrombin
Procedure: FIG. 13 examines the influence of MAP4-TH146 on thrombin-induced calcium mobilization in two prostate cancer cell lines that functionally express PAR 1. In Panel A, the influence of MAP4-TH146 on 2 nM α-thrombin-induced intracellular calcium mobilization in VCaP cells. Calcium flux is abolished by […]. At 6.25 μM MAP4-TH146, there is full recovery of thrombin-induced calcium flux. In Panel B, the influence of MAP4-TH146 on 2 nM α-thrombin-induced intracellular calcium mobilization in PC3 cells. Calcium flux is abolished by 200 μM MAP4-TH146. At 1.56 μM MAP4-TH146, calcium flux recovers.

[1] = molecular target: T1, recombinant protease activated receptor 1 extracellular domain (rPAR1EC) (Homo sapiens, UniProt P25116); assay: Inhibition of RPPGF-biotin binding to rPAR1EC; conditions: 5 mM peptide, 50 μM RPPGF-biotin (FIG. 7); listed in decreasing order
T1 construct: A portion of the extracellular domain of human PAR1 (Ala^26-Ser^99) (rPAR1EC) was expressed in Escherichia coli; His10-DDDDK (pET19b) (N); made in house; host or cells: E. coli BL21(DE3), pET19b
T1 sequence (P25116 26-99): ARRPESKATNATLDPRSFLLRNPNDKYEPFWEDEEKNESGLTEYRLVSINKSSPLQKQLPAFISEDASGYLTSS

[2] = molecular target: T2, α-thrombin cleavage of recombinant extracellular fragment of human PAR1 (rPAR1EC) (Homo sapiens, UniProt P00734); assay: Inhibition of α-thrombin-induced cleavage of rPAR1EC; format: biochemical; conditions: 1 nM α-thrombin, 15 min, 37° C.
T2 construct: A portion of the extracellular domain of human PAR1 (Ala^26-Ser^99) (rPAR1EC) was expressed in Escherichia coli; with 1 nM of α-thrombin or 0.5 μg/mL thrombocytin (16.7 nM); His10-DDDDK (pET19b) (N); made in house; host or cells: E. coli BL21(DE3), pET19b (rPAR1EC)
Procedure: (§1) Thrombocytin is a snake venom enzyme that activates platelets by cleaving PAR1 at the thrombin cleavage site (Santos et al., FEBS Letters. 18, 3570–3577 (2000)). […] The ability of MAP4-rOicPGF to block thrombocytin cleavage of rPAR1EC was performed as follows. One μg of rPAR1EC in 0.01 mM Tris-HCL, 0.2 M NaCl, pH 8.0 was incubated at 37° C. for 15 min or 45 min with 1 nM of α-thrombin or 0.5 μg/mL thrombocytin (16.7 nM), respectively, in the absence or presence of 0.025 to 1 mM MAP4-rOicPGF. The reaction mixture was separated on SDS-PAGE and stained with Coomassie Brilliant Blue. The cleaved gel images were scanned using the software Scion Image, ScionCorp, Frederick, Md.

[3] = tested on: platelets in platelet-rich plasma; assay: γ-thrombin-induced platelet aggregation in platelet-rich plasma; format: cell-based, human
Procedure: Fresh whole blood was collected and mixed with 0.013 M sodium citrate and platelet-rich plasma was prepared according to the method of Meloni et al., J. Biol. Chem. 266, 6786 (1991). Platelet-rich plasma with a normalized platelet count between 2–2.5×10^8 platelets/ml was added to a cuvette of an aggregometer (Chronlog Corp., Havertown, Pa.), standardized using the protocol of Meloni et al., supra. Peptides to be examined were added to the cuvette and the mixture stabilized for a few moments. Once the baseline was stabilized, γ-thrombin (10–70 nM) (Haematologic Technologies, Essex Junction, Vt.) was added to determine the minimal concentration of the agonist necessary to achieve full platelet aggregation. All investigations with peptides were performed using threshold concentrations of γ-thrombin. Aggregation was allowed to proceed for 5 minutes before stopping. When ADP-induced platelet aggregation studies were performed, 1–5 μM ADP (Sigma) was added to the cuvette containing platelet-rich plasma.

[4] = molecular target: T3, thrombocytin cleavage of recombinant human PAR1 extracellular domain (Homo sapiens, UniProt P25116); assay: Inhibition of thrombocytin-induced cleavage of rPAR1EC; format: biochemical; conditions: 16.7 nM thrombocytin, 45 min, 37° C.; below concentration that blocks the enzyme's proteolytic activity
T3 construct: A portion of the extracellular domain of human PAR1 (Ala^26-Ser^99) (rPAR1EC) was expressed in Escherichia coli; His10-DDDDK (pET19b) (N); made in house; host or cells: E. coli BL21(DE3), pET19b (rPAR1EC)
T3 sequence (P25116 26-99): T1 sequence (P25116 26-99)
Procedure: as §1

[5] = tested on: normal human citrated plasma; assay: activated partial thromboplastin time (APTT); format: biochemical; conditions: normal human plasma; p<0.05
Procedure: The influence of the various peptide formulations used in the present invention on established coagulation-based assays was determined. The activated partial thromboplastin time (APTT) is performed by mixing 0.05 ml normal human citrated plasma with 0.05 ml activated partial thromboplastin reagent purchased from Organon Teknika, Research Triangle Park, N.C. in the absence or presence of a peptide inhibitor. After incubation for 5 min at 37° C., the mixture is recalcified with 0.05 ml of 30 mM calcium chloride and the time to clot formation is measured in an Amelung KC4A instrument (Sigma Chemical Corp, St. Louis, Mo.) (Hasan et al. Thrombosis and Haemostasis. 82, 1182–1187 (1999)). The prothrombin time (PT) is performed by mixing 0.05 ml normal human citrated plasma with 0.05 ml Simplastin (Organon Teknika, Research Triangle Park, N.C.) followed by incubation for 3 min at 37° C. in the absence or presence of a peptide inhibitor. At the addition of 0.05 ml of 30 mM calcium chloride, the time to clot formation is measured in an KC4A instrument (Sigma Chemical Corp, St. Louis, Mo.) (Hasan et al. Thrombosis and Haemostasis. 82, 1182–1187 (1999)). The thrombin clotting time (TCT) is performed by adding 0.1 ml normal human citrated plasma in the absence or presence of a peptide inhibitor and 0.05 ml of a α-thrombin solution such that the final concentration of the thrombin in the entire mixture was 1 nM. Upon addition of the thrombin, the time to clot formation is measured in an KC4A instrument (Sigma Chemical Corp, St. Louis, Mo.). In FIG. 5, peptide TH146 produces a significant prolongation (p<0.05) of the activated partial thromboplastin time at 15 μM, of the prothrombin time at 60 μM, and the thrombin clotting time at 15 μM. In FIG. 6, peptide MAP4-TH146 produced a significant prolongation (p<0.05) of the activated partial thromboplastin time at 0.195 μM, of the prothrombin time at 3.125 μM, and the thrombin clotting time at 0.39 μM.

Substance: β-Ala-Lys-2Lys-4(D-Arg-Oic-Pro-Gly-Phe) [MAP4-rOicPGF]
- effect on thrombin-induced calcium flux (PC3 cells; 1.56 μM peptide): recovers
- effect on thrombin-induced calcium flux (PC3 cells; 200 μM peptide): abolished
- blocking of RPPGF-biotin binding to rPAR1EC by peptides [1]: blocked
- effect on α-thrombin cleavage of rPAR1EC [2]: inhibits thrombin and thrombocytin cleavage of rPAR1EC
- concentration that abolished γ-thrombin-induced platelet aggregation ([3]; 40 nM γ-thrombin): ≥ 0.0125 mM
- effect on γ-thrombin-induced platelet aggregation ([3]; 0.006 mM peptide, 40 nM γ-thrombin): returned to pretreatment levels
- effect on γ-thrombin-induced platelet aggregation ([3]; 0.05 mM peptide, 40 nM γ-thrombin): completely abolished
- Concentration of Peptide [mM] That Gives 100% Inhibition ([3]; minimal concentration that blocked γ-thrombin-induced platelet aggregation in platelet-rich plasma): 0.019 mM
- concentration that blocks thrombocytin cleavage of rPAR1EC [4]: 0.2 mM
- concentration giving significant prolongation of the APTT [5]: 0.195 µM
